The structures appear in SMILES notation.

One assay deals with T1, Axl (Homo sapiens, UniProt P30530).
T1 sequence (P30530 26-894): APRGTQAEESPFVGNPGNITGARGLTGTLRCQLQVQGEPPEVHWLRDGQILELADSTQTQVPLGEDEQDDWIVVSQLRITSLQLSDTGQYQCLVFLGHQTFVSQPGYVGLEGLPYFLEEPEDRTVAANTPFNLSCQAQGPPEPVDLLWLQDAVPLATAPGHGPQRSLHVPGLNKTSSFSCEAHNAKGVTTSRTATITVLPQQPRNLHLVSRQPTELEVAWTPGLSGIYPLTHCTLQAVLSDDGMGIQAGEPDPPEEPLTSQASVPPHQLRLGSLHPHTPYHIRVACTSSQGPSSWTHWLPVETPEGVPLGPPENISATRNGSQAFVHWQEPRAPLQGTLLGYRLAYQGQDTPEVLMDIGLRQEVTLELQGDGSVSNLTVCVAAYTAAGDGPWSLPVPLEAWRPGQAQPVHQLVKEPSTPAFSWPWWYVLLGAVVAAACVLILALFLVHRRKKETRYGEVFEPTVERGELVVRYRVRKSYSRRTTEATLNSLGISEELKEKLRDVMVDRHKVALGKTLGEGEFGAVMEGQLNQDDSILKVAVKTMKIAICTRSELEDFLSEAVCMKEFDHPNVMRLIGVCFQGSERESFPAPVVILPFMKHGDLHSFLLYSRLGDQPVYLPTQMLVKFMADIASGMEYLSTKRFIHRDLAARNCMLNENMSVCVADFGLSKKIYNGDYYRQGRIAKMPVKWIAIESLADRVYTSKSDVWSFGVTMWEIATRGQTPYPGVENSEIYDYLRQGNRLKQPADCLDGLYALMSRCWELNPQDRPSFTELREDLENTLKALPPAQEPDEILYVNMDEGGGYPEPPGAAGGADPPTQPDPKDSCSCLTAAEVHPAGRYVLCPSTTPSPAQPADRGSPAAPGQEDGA
In words: Biochemical potency, HTRF KinEASE-TK kinase assay. The conditions noted are these: 5 nM AXL, 700 μM ATP. Set-up: purchased Invitrogen. A digest of the protocol:
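Steps: compound plus kinase, 1 h RT; add ATP (700 µM final) and biotin-TK substrate (800 nM final); run 2 h RT; stop into streptavidin-XL665/anti-phospho cryptate detection mix, 1 h; read 665/620. AXL at 5 nM, TYRO3 and MER at 1 nM.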

A further assay deals with T2, p-AXL (Homo sapiens, UniProt P30530).
T2 construct: expressed in transfected cells; host or cells: HEK293T
T2 sequence (P30530 26-894): T1 sequence (P30530 26-894)
In words: Axl phosphorylation inhibition ELISA in HEK293T cells transfected with NanoLuc-tagged AXL. The assay is classed as cell-based. The conditions noted are these: 1 h compound incubation, media (OptiMEM). A digest of the protocol:
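Phospho-AXL detected by luminescence of NanoLuc tag after capture of cell lysate on biotinylated anti-phospho-tyrosine mAb plates (2 h). Lysates came from transiently transfected HEK293T cells treated 1 h at 37° C with serial 2-fold dilutions (22 points). IC50 by standard 4-parameter logistic fitting.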
(In general: In an ELISA, binding on a coated surface is turned into a signal by an enzyme label.)

By IC50 is commonly meant the midpoint of a concentration-inhibition curve. `Cc1cnc(-c2ccc(-c3c[nH]c4ncc(-c5ccc6c(c5)CC[C@@](C)(N5CCC[C@H]5C)CC6)cc34)cc2)c(C)n1` [Example 57, 3,5-Dimethyl-2-(4-{5-[(7S)-7-methyl-7-[(2R)-2-methylpyrrolidin-1-yl]-6,7,8,9-tetrahydro-5H-benzo[7]annulen-2-yl]-1H-pyrrolo[2,3-b]pyridin-3-yl}phenyl)pyrazine]: the 50% inhibitory concentration (IC50) at Axl and on p-AXL was under 100 nM in each case.

Take `Cc1cc(C)c(-c2ccc(-c3n[nH]c4ncc(-c5ccc6c(c5)CC[C@@H](N5C7COCC5C7)CC6)cc34)cc2)nn1` [Example 77, 6-[(7S)-2-{3-[4-(4,6-Dimethylpyridazin-3-yl)phenyl]-1H-pyrazolo[3,4-b]pyridin-5-yl}-6,7,8,9-tetrahydro-5H-benzo[7]annulen-7-yl]-3-oxa-6-azabicyclo[3.1.1]heptane]: the IC50 at Axl and against p-AXL was under 100 nM each time.

Regarding `COc1ccnc(-c2ccc(-c3n[nH]c4ncc(-c5ccc6c(c5)CC[C@@H](N5C7COCC5C7)CC6)cc34)cc2)c1C` [Example 87, 6-[(7S)-3-[3-[4-(4-Methoxy-3-methylpyridin-2-yl)phenyl]-1H-pyrazolo[3,4-b]pyridin-5-yl]-6,7,8,9-tetrahydro-5H-benzo[7]annulen-7-yl]-3-oxa-6-azabicyclo[3.1.1]heptane], the IC50 against Axl was under 100 nM; at p-AXL, 100 to 1000 nM.

Source of the values: patent US12195482B1 (Arcus Biosciences, Inc., priority 2022, dated 2025).
